Laboratory results: a compilation of properties of binary mixtures (doi:10.1016/s1004-9541(08)60072-5)

Assay: xn = mol fraction of the nth substance listed
Conditions: 101 kPa

Compound: CN(C)C=O + CCCC[n+]1ccn(C)c1.F[P-](F)(F)(F)(F)F
- viscosity (293.15 K, x1 = 1): 0.91 mPa·s
- viscosity (298.15 K, x1 = 1): 0.87 mPa·s
- viscosity (308.15 K, x1 = 1): 0.78 mPa·s
- viscosity (313.15 K, x1 = 1): 0.75 mPa·s
- viscosity (318.15 K, x1 = 1): 0.72 mPa·s

Compound: CCCC[n+]1ccn(C)c1.F[P-](F)(F)(F)(F)F + CN(C)C=O
- viscosity (293.15 K, x2 = 0): 265 mPa·s
- viscosity (293.15 K, x2 = 0.1002): 151.1 mPa·s
- viscosity (293.15 K, x2 = 0.2): 94.6 mPa·s
- viscosity (293.15 K, x2 = 0.3002): 59.6 mPa·s
- viscosity (293.15 K, x2 = 0.5): 23.41 mPa·s
- viscosity (293.15 K, x2 = 0.6): 12.37 mPa·s
- viscosity (293.15 K, x2 = 0.7): 6.86 mPa·s
- viscosity (293.15 K, x2 = 0.7999): 3.71 mPa·s
- viscosity (293.15 K, x2 = 0.8999): 1.9 mPa·s
- viscosity (298.15 K, x2 = 0): 205.6 mPa·s
- viscosity (298.15 K, x2 = 0.1002): 114.5 mPa·s
- viscosity (298.15 K, x2 = 0.2): 73.4 mPa·s
- viscosity (298.15 K, x2 = 0.3002): 47.4 mPa·s
- viscosity (298.15 K, x2 = 0.3999): 32.09 mPa·s
- viscosity (298.15 K, x2 = 0.5): 19.44 mPa·s
- viscosity (298.15 K, x2 = 0.6): 10.57 mPa·s
- viscosity (298.15 K, x2 = 0.7): 6.02 mPa·s
- viscosity (298.15 K, x2 = 0.7999): 3.35 mPa·s
- viscosity (298.15 K, x2 = 0.8999): 1.77 mPa·s
- viscosity (303.15 K, x2 = 0): 165.7 mPa·s
- viscosity (303.15 K, x2 = 0.1002): 88.2 mPa·s
- viscosity (303.15 K, x2 = 0.2): 58 mPa·s
- viscosity (303.15 K, x2 = 0.3002): 38.1 mPa·s
- viscosity (303.15 K, x2 = 0.3999): 26.34 mPa·s
- viscosity (303.15 K, x2 = 0.5): 16.3 mPa·s
- viscosity (303.15 K, x2 = 0.6): 9.11 mPa·s
- viscosity (303.15 K, x2 = 0.7): 5.32 mPa·s
- viscosity (303.15 K, x2 = 0.7999): 3.03 mPa·s
- viscosity (303.15 K, x2 = 0.8999): 1.62 mPa·s
- viscosity (308.15 K, x2 = 0): 133.9 mPa·s
- viscosity (308.15 K, x2 = 0.1002): 68.8 mPa·s
- viscosity (308.15 K, x2 = 0.2): 45.9 mPa·s
- viscosity (308.15 K, x2 = 0.3999): 21.74 mPa·s
- viscosity (308.15 K, x2 = 0.5): 13.74 mPa·s
- viscosity (308.15 K, x2 = 0.7999): 2.73 mPa·s
- viscosity (308.15 K, x2 = 0.8999): 1.5 mPa·s
- viscosity (313.15 K, x2 = 0): 110.8 mPa·s
- viscosity (313.15 K, x2 = 0.1002): 54.9 mPa·s
- viscosity (313.15 K, x2 = 0.2): 37.4 mPa·s
- viscosity (313.15 K, x2 = 0.3002): 25.68 mPa·s
- viscosity (313.15 K, x2 = 0.3999): 18.3 mPa·s
- viscosity (313.15 K, x2 = 0.5): 11.82 mPa·s
- viscosity (313.15 K, x2 = 0.6): 6.94 mPa·s
- viscosity (313.15 K, x2 = 0.7): 4.22 mPa·s
- viscosity (313.15 K, x2 = 0.7999): 2.51 mPa·s
- viscosity (313.15 K, x2 = 0.8999): 1.4 mPa·s
- viscosity (318.15 K, x2 = 0.1002): 44.6 mPa·s
- viscosity (318.15 K, x2 = 0.3002): 21.55 mPa·s
- viscosity (318.15 K, x2 = 0.3999): 15.57 mPa·s
- viscosity (318.15 K, x2 = 0.5): 10.24 mPa·s
- viscosity (318.15 K, x2 = 0.7): 3.82 mPa·s
- viscosity (318.15 K, x2 = 0.7999): 2.3 mPa·s
- viscosity (318.15 K, x2 = 0.8999): 1.31 mPa·s
